Data reported in patent US6482984B2 (priority 2000, dated 2002).

Assays:
Assay type in all cases: in vivo
[1] = test system: Pyricularia oryzae; details: 63 ppm active ingredient; rice seedlings c.v. Tai-Nong 67; inoculated the day after spraying (protective); 6 days; determined visually; untreated plants infected to 85%
[2] = test system: Puccinia recondita; assay: Curative activity against Puccinia recondita on wheat (leaf rust of wheat); details: 16 ppm active ingredient; wheat seedlings c.v. Kanzler; sprayed the day after infection (curative); 7 days in greenhouse; untreated plants infected to 95%
Method: (§1) The active ingredients were formulated as a 10% strength emulsion in a mixture of 63% by weight of cyclohexanone and 27% by weight of emulsifier and diluted to the desired concentration with water.
Leaves of potted wheat seedlings c.v. “Kanzler” were dusted with leaf rust spores (Puccinia recondita). The pots were then placed for 24 hours in a chamber with high atmospheric humidity (90 to 95%) at 20 to 22° C. During this time, the spores germinated, and the germinal tubes penetrated the leaf tissue. The next day, the infected plants were sprayed to run off point with an aqueous preparation of active ingredient which had been prepared using a stock solution of 10% of active ingredient, 63% of cyclohexanone and 27% of emulsifier. After the spray coating had dried on, the test plants were cultivated for 7 days in a greenhouse at 20-22° C. and a relative atmospheric humidity of 65-70%. The extent of rust development on the leaves was then determined.

[3] = test system: powdery mildew of wheat (Erysiphe graminis forma specialis tritici); assay: Activity against powdery mildew of wheat (protective spray, potted wheat seedlings); details: 1 ppm active ingredient; wheat seedlings c.v. Frühgold; dusted with spores 24 hours after spraying; scored visually after 7 days; untreated plants infected to 90%
Method: as §1
Leaves of potted wheat seedlings c.v. “Frühgold” were sprayed to run off point with an aqueous preparation of active ingredient which had been prepared using a stock solution of 10% of active ingredient, 63% of cyclohexanone and 27% of emulsifier and, 24 hours after the spray coating had dried on, dusted with spores of powdery mildew of wheat (Erysiphe graminis forma specialis tritici). The test plants were subsequently placed in a greenhouse at 20-24° C. and 60-90% relative atmospheric humidity. After 7 days, the extent of the mildew development was scored visually in % infection of the total leaf area.

SMILES	extent of the development of the infection on the leaves [1]	extent of rust development on the leaves (infection) [2]	extent of the mildew development, % infection of the total leaf area [3]
CNC(=O)/C(=N/OC)c1ccccc1COc1ccccc1C [compound A]	25%	60%	60%
CNC(=O)/C(=N/OC)c1ccccc1COc1ccc(/C(C)=N/OC)cc1C [compound B]	40%	25%	25%
CNC(=O)/C(=N/OC)c1ccccc1COc1ccc(OC(C)/C(C)=N/OC)cc1C (stereo not shown) [I-1, 2-Methoxyimino-2-{2-[4-(2-methoxyimino-1-methyl-propoxy)-2-methylphenoxymethyl]phenyl}-N-methyl-acetamide]	–	–	no infection
